Source: patent US12171229B2, “Heteroaryl-triazole and heteroaryl-tetrazole compounds as pesticides” (BAYER AKTIENGESELLSCHAFT, priority 2018, dated 2024)

Key:
Assay type in all cases: in vivo
Ctenocephalides felis [1] = test: Ctenocephalides felis in-vitro contact test, adult cat flea; conditions: 5 μg/cm^2 (=500 g/ha), after 48 hours, adult cat fleas, read-out: efficacy (fleas dead or moribund)
Method: Ctenocephalides Felis—In-Vitro Contact Tests Adult Cat Flea 9 mg compound is solved in 1 ml acetone and diluted with acetone to the desired concentration. 250 μl of the test solution is filled in 25 ml glass test tubes and homogeneously distributed on the inner walls by rotation and tilting on a shaking device (2 h at 30 rpm). With a compound concentration of 900 ppm, an inner surface of 44.7 cm^2 and a homogeneous distribution, a dose of 5 μg/cm^2 is achieved. After the solvent has evaporated, each test tube is filled with 5-10 adult cat fleas (Ctenocephalides felis), closed with a perforated lid and incubated in a lying position at room temperature and relative humidity. After 48 hours efficacy is determined. The fleas are patted on the ground of the tubes and are incubated on a heating plate at 45-50° C. for at most 5 minutes. Immotile or uncoordinated moving fleas, which are not able to escape the heat by climbing upwards, are marked as dead or moribund. […] An efficacy of 100% means all fleas are dead or moribund; 0% means no fleas are dead or moribund.

Boophilus microplus = Boophilus microplus injection test; conditions: Rhipicephalus microplus, 168 h; 20 μg/animal injected into the abdomen; adult engorged female ticks; egg deposition after 7 days; read-out: efficacy (infertile eggs)
In short: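 Five engorged adult female ticks received a 1 μl abdominal injection of compound in DMSO. They were then held in a climate chamber, with egg deposition checked after 7 days. Unclear eggs were kept until hatching at about 42 days, and efficacy was scored as the percentage of infertile eggs.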

Ctenocephalides felis [2] = test: Ctenocephalides felis oral test; conditions: 48 h, 100 ppm in cattle blood, after 2 days, adult unfed cat fleas
In short: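 About 20 unfed adult cat fleas feed through parafilm on cattle blood dosed with compound from a DMSO stock. Blood chamber at 37° C, fleas at room temperature. Percent mortality scored after 2 days.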

Diabrotica balteata = Diabrotica balteata spray test; conditions: Diabrotica balteata, in Triticum aestivum, 168 h, after 7 days, larvae on wheat seeds, read-out: efficacy (seedlings grown up); for pest or weed control at 80 µg/disc, 250 g/ha: 80 μg/well (=250 g/ha); for pest or weed control at 160 µg/disc, 500 g/ha: 160 μg/well (=500 g/ha)
In short: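 Germinated wheat seeds (5 per well, 1 day on agar) sprayed with compound diluted in water containing 1000 ppm emulsifier, then infested with 10–20 D. balteata larvae. Efficacy scored after 7 days: 100% = seedlings like untreated uninfested control, 0% = no seedlings grown.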

Myzus persicae [3] = test: Myzus persicae oral test; conditions: 120 h, 4 ppm, after 5 days
In short: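 Aphid mortality (%) was recorded 5 days after a mixed Myzus persicae population began sucking, through parafilm, on compound solutions (acetone stock diluted with water) combined with sugar-supplemented IPL41 medium.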

Myzus persicae [4] = test: Myzus persicae spray test; conditions: foliar, 120 h, after 5 days, Chinese cabbage leaf disks
In short: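 Chinese cabbage leaf disks infested with all aphid instars were sprayed with compound diluted in water containing emulsifier (1000 ppm). Mortality (%) was scored after 5 days, 100% meaning all aphids killed.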

Nezara viridula = Nezara viridula spray test; conditions: 96 h, after 4 days, larvae on barley plants
In short: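 Barley plants infested with Nezara viridula larvae were sprayed with compound diluted in water containing 1000 ppm emulsifier. Percent mortality was scored 4 days later, where 100% means all bugs killed and 0% none.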

Spodoptera frugiperda = Spodoptera frugiperda spray test; conditions: 168 h, after 7 days, larvae on maize leaf sections
In short: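 Maize leaf sections were sprayed with compound formulated in solvent and diluted in water containing 1000 ppm emulsifier, then infested with fall armyworm larvae after drying. Percent mortality was scored after 7 days (100% = all caterpillars dead, 0% = none).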

[5] = test system: Aedes aegypti strain MONHEIM; test: Aedes aegypti test (AEDSAE surface treatment & contact assay); conditions: 24 hours after contact, read-out: efficacy (mortality); for mortality at 4 mg/m2: surface concentration 4 mg/m^2, exposure 30 minutes; for mortality at 20 mg/m2: surface concentration 20 mg/m^2, exposure 30 minutes
In short: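 Compound dissolved in acetone (2 mg/ml) with 2000 ppm rapeseed oil methyl ester, applied to glazed tile and dried; adult strain MONHEIM mosquitoes exposed 30 minutes. Percent mortality scored 24 hours after contact.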

[6] = test system: Culex quinquefasciatus strain P00; test: Culex quinquefasciatus test (CULXFA surface treatment & contact assay); conditions: 24 hours after contact, read-out: efficacy (mortality); for mortality at 4 mg/m2: surface concentration 4 mg/m^2, exposure 30 minutes; for mortality at 20 mg/m2: surface concentration 20 mg/m^2, exposure 30 minutes
Method: Culex Quinquefasciatus Test (CULXFA Surface Treatment & Contact Assay)
(§1) Solvent: Aceton+2000 ppm rapeseed oil methyl ester (RME)
(§2) In order to produce a sufficient, active ingredient containing solution it is necessary to solve the test compound in the solvent-mix (acetone at 2 mg/ml/RME 2000 ppm). This solution is pipetted onto a glazed tile and after evaporation of the acetone, adult mosquitoes of the species Culex quinquefasciatus strain P00 are placed onto the dried surface. The exposure time is 30 minutes.
(§3) Mortality in percent (%) is determined 24 hours after contact of the insects to the treated surface. 100% mortality means that all tested insects are dead, whereas 0% means that no insect died.

[7] = test system: Anopheles funestus strain FUMOZ-R; test: Anopheles funestus test (ANPHFU surface treatment & contact assay); conditions: 24 hours after contact, read-out: efficacy (mortality); for mortality at 20 mg/m2: surface concentration 20 mg/m^2, exposure 30 minutes
Method: Anopheles funestus Test (ANPHFU Surface Treatment & Contact Assay)
as §1
as §2, with “Anopheles funestus” for “Culex quinquefasciatus”, “FUMOZ-R (Hunt et al., Med. Vet. Entomol. 2005 September; 19(3): 271-275)” for “P00”
as §3

Nilaparvata lugens = Nilaparvata lugens spray test; conditions: 336 h, after 14 days, rice plants
Method: Nilaparvata lugens—Spray Test
To produce a suitable preparation of active compound, 1 part by weight of active compound is mixed with the stated amount of solvents and is diluted with water, containing an emulsifier concentration of 1000 ppm, to the desired concentration. Further test concentrations are prepared by dilution with emulsifier containing water.
Rice plants (Oryza sativa) are sprayed with a preparation of the active ingredient of the desired concentration and the plants are infested with the brown planthopper (Nilaparvata lugens).
After 14 days mortality in % is determined. 100% means all planthoppers have been killed and 0% means none of the planthoppers have been killed.

[8] = test system: Musca domestica strain WHO-N; test: Musca domestica test (MUSCDO surface treatment & contact assay); conditions: 24 hours after contact, read-out: efficacy (mortality)
Method: Musca domestica test (MUSCDO surface treatment & contact assay)
as §1
as §2, with “flies” for “mosquitoes”, “Musca domestica” for “Culex quinquefasciatus”, “WHO-N” for “P00”
Mortality in percent (%) is determined 24 hours after contact of the insects to the treated surface. 100% morality means that all tested insects are dead, whereas 0% means that no insect died.

[9] = surface concentration 4 mg/m^2, exposure 30 minutes

Structure (SMILES) | pest or weed control at 5 µg/cm2 (Ctenocephalides felis [1]) | pest or weed control at 0.02 mg (Boophilus microplus) | mortality at 100 ppm (Ctenocephalides felis [2]) | pest or weed control at 80 µg/disc, 250 g/ha (Diabrotica balteata) | pest or weed control at 160 µg/disc, 500 g/ha (Diabrotica balteata) | mortality at 4 ppm (Myzus persicae [3]) | mortality at 100 g/ha (Myzus persicae [4]) | mortality at 500 g/ha (Myzus persicae [4]) | mortality at 500 g/ha (Nezara viridula) | mortality at 100 g/ha (Spodoptera frugiperda) | mortality at 500 g/ha (Spodoptera frugiperda) | mortality at 4 mg/m2 [5] | mortality at 100 g/ha (Nezara viridula) | mortality at 500 g/ha (Nilaparvata lugens) | other results
CC(=O)Nc1ccc(-n2ncnc2[C@H](C)NC(=O)c2cc(Cl)cc(C(F)(F)F)c2)nc1 [Example I-033] | 100% | 100% | 100% | 100% | 100% | 100% | 100% | 100% | 100% | 100% | 100% | 90 to 100% |  |  | mortality at 20 mg/m2 [5]: 90 to 100%; mortality at 4 mg/m2 [6]: 90 to 100%; mortality at 20 mg/m2 [6]: 90 to 100%; mortality at 20 mg/m2 [7]: 90 to 100%
CC(NC(=S)c1cc(Cl)cc(C(F)(F)F)c1)c1ncnn1-c1ccc(C#N)cn1 (stereo in doubt) [Example I-080, 3-chloro-N-{(1R)-1-[1-(5-cyanopyridin-2-yl)-1H-1,2,4-triazol-5-yl]ethyl}-5-(trifluoromethyl)benzenecarbothioamide] | 100% | 100% | 100% | 100% | 80% |  |  |  | 100% | 100% | 100% |  | 100% | 100% | 
CC[C@H](NC(=O)c1cc(C(F)(F)F)cc(C(F)(F)F)c1)c1ncnn1-c1ccc([N+](=O)[O-])cn1 [Example I-069] |  | 100% |  |  | 100% |  |  |  |  |  | 100% |  |  | 70% | 
C[C@H](NC(=O)c1cc(Cl)cc(C(F)(F)F)c1)c1ncnn1-c1ncc(F)cc1F [Example I-014] |  | 100% | 100% | 100% | 100% | 100% | 90% | 90% | 100% | 100% | 100% | 90 to 100% | 100% | 100% | mortality at 20 mg/m2 [5]: 90 to 100%; mortality at 4 mg/m2 [6]: 90 to 100%; mortality at 20 mg/m2 [6]: 90 to 100%; mortality at 4 mg/m2 [7, 9]: 85 to 100%; mortality at 20 mg/m2 [7]: 90 to 100%; mortality at 4 mg/m2 [8, 9]: 90 to 100%; mortality at 20 mg/m2 ([8]; surface concentration 20 mg/m^2, exposure 30 minutes): 90 to 100%
C[C@H](NC(=O)c1cc(Cl)cc(C(F)(F)F)c1)c1ncnn1-c1ccc(OCC(F)(F)F)cn1 [Example I-039, 3-chloro-N-[(1S)-1-{1-[5-(2,2,2-trifluoroethoxy)pyridin-2-yl]-1H-1,2,4-triazol-5-yl}ethyl]-5-(trifluoromethyl)benzamide] |  | 100% | 100% | 100% | 100% |  |  |  |  | 100% | 100% | 90 to 100% |  | 100% | 
CC[C@H](NC(=O)c1cc(Cl)cc(OC(F)(F)F)c1)c1ncnn1-c1ccc(C#N)cn1 [Example I-070] |  | 100% | 80% |  |  |  |  |  |  | 100% | 100% |  |  | 100% | 
CC[C@H](NC(=O)c1cc(C(F)(F)F)cc(C(F)(F)F)c1)c1ncnn1-c1ccc(NC(=O)C2CC2)cn1 [Example I-094] |  |  | 100% | 100% |  |  |  |  | 100% |  |  |  |  | 100% | 
C[C@H](NC(=O)c1cc(Cl)cc(C(F)(F)F)c1)c1ncnn1-c1ccc(C(=O)NCC(F)(F)F)cn1 [Example I-078] | 90% | 100% | 100% | 100% | 80% | 100% |  |  | 100% | 100% | 100% |  | 90% | 100% | 
C[C@H](NC(=O)c1cc(C(F)(F)F)cc(C(F)(F)F)c1)c1ncnn1-c1ncc(F)cc1F [Example I-077] | 100% | 100% | 100% | 100% | 100% | 100% | 90% | 90% | 100% | 100% | 100% |  | 100% | 100% | 
